Measurements taken from patent US8486931B2, “Substituted oxindole compounds” (Abbott GmbH & Co. KG, priority 2007, dated 2013).

Each compound was assayed against T1, human vasopressin V1b receptor (Homo sapiens, UniProt P47901) (assay: Vasopressin V1b receptor binding assay). Conditions: membranes from CHO-K1 cells with stably expressed human V1b receptors, 1.5 nM 3H-AVP displacement; with more than one stereogenic center: the diastereomer with stronger affinity.
T1 construct: expressed in transfected cells; host or cells: CHO-K1 (cell line hV1b-3H2_CHO), membrane preparation
T1 sequence (P47901 1-424): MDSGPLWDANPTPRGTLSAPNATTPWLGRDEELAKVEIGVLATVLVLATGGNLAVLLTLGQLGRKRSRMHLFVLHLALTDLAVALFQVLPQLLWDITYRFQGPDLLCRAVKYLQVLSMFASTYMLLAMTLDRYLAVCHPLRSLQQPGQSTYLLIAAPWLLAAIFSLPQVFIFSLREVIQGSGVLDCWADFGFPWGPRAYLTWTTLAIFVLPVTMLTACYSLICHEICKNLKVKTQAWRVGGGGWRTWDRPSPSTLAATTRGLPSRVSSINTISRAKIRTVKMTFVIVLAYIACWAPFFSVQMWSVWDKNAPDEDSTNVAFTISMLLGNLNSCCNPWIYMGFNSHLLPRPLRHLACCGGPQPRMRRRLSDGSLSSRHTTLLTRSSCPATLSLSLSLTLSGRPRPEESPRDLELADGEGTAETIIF
In short: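 Membranes bearing human V1b receptor incubated 60 min at room temperature in 50 mM Tris, 10 mM MgCl2, 0.1% BSA, pH 7.4, 2% DMSO, triplicate.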

CCOc1ccc(OC)cc1C1(N2CCN(c3ccncc3)CC2)C(=O)N(S(=O)(=O)c2ccc(OC)c3cccnc23)c2ccc(C#N)cc21 (racemic) [Example 80, (±)-5-Cyano-3-(2-ethoxy-5-methoxyphenyl)-1-(5-methoxyquinoline-8-sulfonyl)-3-(4-pyridin-4-ylpiperazin-1-yl)-2,3-dihydro-1H-indol-2-one] and CCOc1ccc(OC)cc1C1(N2CCN(c3ccncc3)CC2)C(=O)N(S(=O)(=O)c2ccc(F)c3cccnc23)c2ccc(C#N)cc21 (racemic) [Example 81, (±)-5-Cyano-3-(2-ethoxy-5-methoxyphenyl)-1-(5-fluoroquinoline-8-sulfonyl)-3-(4-pyridin-4-ylpiperazin-1-yl)-2,3-dihydro-1H-indol-2-one] cannot be ordered by Ki: < 10 nM for the first, < 10 nM for the second.

CCOc1cc(F)ccc1C1(N2CCN(c3ccnc(C)c3)CC2)C(=O)N(S(=O)(=O)c2ccc(OC)cn2)c2ccc(C#N)cc21 (racemic) [Example 144, (±)-5-Cyano-3-(2-ethoxy-4-fluoro-phenyl)-1-(5-methoxy-pyridine-2-sulfonyl)-3-[4-(2-methyl-pyridin-4-yl)-piperazin-1-yl]-2,3-dihydro-1H-indol-2-one] and CCOc1ccc(OC)cc1C1(N2CCCN(c3ccnc(C(C)C)c3)CC2)C(=O)N(S(=O)(=O)c2ccc(OC)cn2)c2ccc(C#N)cc21 (racemic) [Example 154, (±)-5-Cyano-3-(2-ethoxy-5-methoxy-phenyl)-3-[4-(2-isopropyl-pyridin-4-yl)-[1,4]diazepan-1-yl]-1-(5-methoxy-pyridine-2-sulfonyl)-2,3-dihydro-1H-indol-2-one] cannot be ordered by Ki: < 10 nM for the first, < 10 nM for the second.

CCOc1ccc(OC)cc1C1(N2CCCN(c3ccnc(C)c3)CC2)C(=O)N(S(=O)(=O)c2ccc(OC)c3cccnc23)c2ccc(C#N)cc21 (racemic) [Example 73, (±)-5-Cyano-3-(2-ethoxy-5-methoxyphenyl)-1-(5-methoxyquinoline-8-sulfonyl)-3-[4-(2-methylpyridin-4-yl)-[1,4]diazepan-1-yl]-2,3-dihydro-1H-indol-2-one] and CCOc1ccc(OC)cc1C1(N2CCN(c3ccnc(C)c3)CC2)C(=O)N(S(=O)(=O)c2cccc3cccnc23)c2ccc(C#N)cc21 (racemic) [Example 54, (±)-5-Cyano-3-(2-ethoxy-5-methoxyphenyl)-3-[4-(2-methylpyridin-4-yl)piperazin-1-yl]-1-(quinoline-8-sulfonyl)-2,3-dihydro-1H-indol-2-one] cannot be ordered by Ki: < 10 nM for the first, < 10 nM for the second.

CCOc1ccccc1C1(N2CCCN(c3ccncc3)CC2)C(=O)N(S(=O)(=O)c2ccc(OC)cn2)c2ccc(C#N)cc21 (racemic) [Example 78, (±)-5-Cyano-3-(2-ethoxyphenyl)-1-(5-methoxypyridine-2-sulfonyl)-3-(4-pyridin-4-yl-[1,4]diazepan-1-yl)-2,3-dihydro-1H-indol-2-one] and CCOc1cc(OC)ccc1C1(N2CCN(c3ccncc3)CC2)C(=O)N(S(=O)(=O)c2cccc3cccnc23)c2ccc(C#N)cc21 (racemic) [Example 157, (±)-5-Cyano-3-(2-ethoxy-4-methoxy-phenyl)-3-(4-pyridin-4-yl-piperazin-1-yl)-1-(quinoline-8-sulfonyl)-2,3-dihydro-1H-indol-2-one] fall in the same range of Ki: 10 to 50 nM for the first, 10 to 50 nM for the second.

First: CCOc1ccc(OC)cc1C1(N2CCN(C3CCNCC3)CC2)C(=O)N(S(=O)(=O)c2ccc(OC)cn2)c2ccc(C#N)cc21 (single isomer, unassigned; (+)) [Example 140, (+)-5-Cyano-3-(2-ethoxy-5-methoxy-phenyl)-1-(5-methoxy-pyridine-2-sulfonyl)-3-(4-piperidin-4-yl-piperazin-1-yl)-2,3-dihydro-1H-indol-2-one]
Second: CCOc1ccc(OC)cc1C1(N2C[C@@H]3C[C@H]2CN3c2ccncc2)C(=O)N(S(=O)(=O)c2ccc(C)cn2)c2ccc(C#N)cc21 (mixture of isomers) [Example 20, (±)-5-Cyano-3-(2-ethoxy-5-methoxyphenyl)-1-(5-methylpyridine-2-sulfonyl)-3-((1S, 4S)-5-pyridin-4-yl-2,5-diazabicyclo[2.2.1]hept-2-yl)-2,3-dihydro-1H-indol-2-one]
The Ki of the first is lower: < 10 nM for the first, 10 to 50 nM for the second.

CCOc1cc(F)ccc1C1(N2CCN(c3ccncc3)CC2)C(=O)N(S(=O)(=O)c2ccc(OC)c3cccnc23)c2ccc(C#N)cc21 (racemic) [Example 31, (±)-5-Cyano-3-(2-ethoxy-4-fluorophenyl)-1-(5-methoxyquinoline-8-sulfonyl)-3-(4-pyridin-4-ylpiperazin-1-yl)-2,3-dihydro-1H-indol-2-one] and CCOc1nc(Cl)ccc1C1(N2CCN(c3ccncc3)CC2)C(=O)N(S(=O)(=O)c2cccc3c(C)ccnc23)c2ccc(C#N)cc21 (racemic) [Example 30, (±)-5-Cyano-3-(6-chloro-2-ethoxypyridin-3-yl)-1-(4-methylquinoline-8-sulfonyl)-3-(4-pyridin-4-ylpiperazin-1-yl)-2,3-dihydro-1H-indol-2-one] fall in the same range of Ki: 10 to 50 nM for the first, 10 to 50 nM for the second.
